According to patent US11933781B2, “Fibrosis model and methods of use thereof” (The Regents of the University of Colorado, priority 2020, dated 2024):
Entries after “also recorded” stand apart in the source; their conditions may differ.

Assays:
[1] = system: primary human lung fibroblasts (HLFs); assay: Activation of human lung fibroblasts on 3 kPa hydrogels by HBEC conditioned media; assay type: cell-based; conditions: HLFs in IPF conditioned HBEC media supplemented with inhibitor
Experimental: Culture and treatment of HLFs: Primary human lung fibroblasts (HLFs) were obtained from control lungs not suitable for transplantation at National Jewish Health. Briefly, pieces of tissue were placed into a tissue-culture dish and weighed down by a coverslip. Cells were cultured in DMEM (Corning, Corning, New York, 10-013-cv) supplemented with L-glutamine (25-005-cl), penicillin/streptomycin (Corning, Corning, New York, 30-002-c1), and 10% fetal bovine serum (ATCC®, Manassas, Virginia, 30-2020). These fibroblasts were then sub-cultured in t-75 flasks. All HLFs used in this study (N=4) were seeded at passage 3. […]
Quantitative RT-PCR Analysis: Total RNA was extracted using RNeasy® Mini kit (Qiagen, Hilden, Germany) and quantified by NanoDrop™ (ThermoFisher Scientific™, Waltham, Massachusetts).Reverse transcription was completed using the High Capacity cDNA Reverse Transcription Kit (Applied Biosystems™, Thermo Fisher Scientific™, Waltham, Massachusetts). […]
Immunofluorescence and cell number quantification for HLF experiments: For fluorescence quantification, (i.e., vimentin or alpha-SMA) images were all processed using the same settings. Fluorescence intensity was determined by channel separation and measurement of mean gray value for the field and normalized to total cell number. Cell number was determined by automated counting in ImageJ. […]

[2] = system: proximal, jammed cultures; assay: IL-6 family cytokine induced unjamming of proximal airway epithelial cultures; assay type: cell-based, human; conditions: proximal cultures pre-treated, then stimulated with IL-6 family cytokines
Experimental: Live Cell Imaging and Dynamics Measurement: To assess cellular dynamics, time-lapse microscopy and subsequent analysis were completed. Two imaging schemes were utilized: (1) images were taken every 5 minutes for 200 minutes during HBEC differentiation; (2) images were taken every 20 minutes for 48, 96, or 144 hours after HBEC experimental intervention. Phase contrast images were acquired on a Keyence BZ-X810 with a stage incubator (37° C., 5% CO2). Dynamic analysis followed previously published workflows (10-12, 22). Briefly, using phase contrast images instantaneous velocities were mapped by particle image velocimetry utilizing open source PIVLab on MATLAB. Velocity fields were obtained with 2 passes (64×64 and 32×32 pixel size interrogation window with 50% overlap) with a pixel size of 0.75488 μm using a Fast Fourier Transformation method. Trajectories from the PIV were seeded onto a grid and obtained via forward-integration of subsequent fields. […]
Cell Shape Analysis: Cell shape measurements were achieved via cell border delineation by F-actin immunofluorescence. […] Similar to previously published workflows, we segmented images which were subsequently analyzed in ImageJ for the shape index (q=Perimeter√Area) and aspect ratio (major and minor axis) for all cells within a given field of view. […]

IPF HBECs [3] = assay: Induction of the unjammed-to-jammed transition (UJT) in IPF HBECs; assay type: cell-based, human; conditions: day 14 IPF HBECs
From the text: (§1) Epithelial Cell Culture: Primary human bronchial epithelial cells (HBECs) were obtained from two sources (1) provided by Dr. Hong Wei Chu at National Jewish Health, or (2) lung transplant collection at the University of Colorado Hospital (IRB protocol: 11-1664 or 18-0572). Epithelial cells from bronchial brushes or CT-guided dissection were expanded to passage 2 before being cultured at air liquid interface (ALI). Control (N=11), IPF (N=6), and COPD (N=3) were age matched and controls had no history of chronic lung disease (Table 1). Cells were seeded on 24-Transwell plates (Corning, Corning, New York, 3470) coated with type I collagen (Corning, Corning, New York, 354236) and maintained under submerged conditions for five to seven days until the cells reached confluence. Culture media was a 1:1 mixture of DMEM and BEBM (Lonza, Basel, Switzerland, CC170) supplemented with retinoic acid (Sigma-Aldrich, Germany, R-2625) nystatin (Sigma-Aldrich, Germany N1638), and bovine serum albumin (FisherSci, Thermo Fisher Scientific, Waltham, Massachusetts BP9703100). Once confluent, apical media was removed and maintained at ALI. HBECs began recapitulating the in vivo airway, with production of mucus (6-9 days after establishing ALI) and development of a pseudostratified epithelium. Cells were switched to a starvation media (lacking supplemental epidermal growth factor, hydrocortisone, and bovine pituitary extract) 24 hours prior to experimentation.
(§2) For inhibitor, activator, and ligand treatments HBECs were cultured in a starvation media in the absence of EGF, hydrocortisone, and bovine pituitary extract for 24 hours prior to treatment initiation. Cells were then treated for 2-4 hours (with exception of AREG neutralizing antibody which was maintained in the culture media), media was aspirated, the wells were washed with warm PBS and then replaced with fresh starvation media without inhibitor/activator/ligand present, and subsequently imaged. For experiments that required subsequent media changes (96 hour) cells fresh starvation media was changed 48 hours afterwards.
Live Cell Imaging and Dynamics Measurement: To assess cellular dynamics, time-lapse microscopy and subsequent analysis were completed. Two imaging schemes were utilized: (1) images were taken every 5 minutes for 200 minutes during HBEC differentiation; (2) images were taken every 20 minutes for 48, 96, or 144 hours after HBEC experimental intervention. Phase contrast images were acquired on a Keyence BZ-X810 with a stage incubator (37° C., 5% CO2). Dynamic analysis followed previously published workflows (10-12, 22). Briefly, using phase contrast images instantaneous velocities were mapped by particle image velocimetry utilizing open source PIVLab on MATLAB. Velocity fields were obtained with 2 passes (64×64 and 32×32 pixel size interrogation window with 50% overlap) with a pixel size of 0.75488 μm using a Fast Fourier Transformation method. Trajectories from the PIV were seeded onto a grid and obtained via forward-integration of subsequent fields. These values were then used to determine mean-squared-displacement (MSD) and self-overlap order parameter (Q): MSD(Δt)= ? ri(t+Δt)−ri(t)|2 ? and Q(Δt)=N−1ΣwiNi=1 as previously published. Instantaneous room mean squared velocity (VRMS) of the monolayer was obtained as previously published: VRMS(t)=√1MΣ ? |v(t)2 ? jMj=1
Cell Shape Analysis: Cell shape measurements were achieved via cell border delineation by F-actin immunofluorescence. Images were segmented utilizing SeedWater Segmenter. Similar to previously published workflows, we segmented images which were subsequently analyzed in ImageJ for the shape index (q=Perimeter√Area) and aspect ratio (major and minor axis) for all cells within a given field of view. For each experimental condition an n≥3 was used with at least 3 independent wells per donor per treatment condition. […]

IPF HBECs [4] = assay: YAP immunofluorescence in IPF HBECs; assay type: cell-based, human; conditions: IPF HBECs 48 hours after treatment
Experimental: Immunofluorescence staining: Cells were fixed with 4% paraformaldehyde in PBS with calcium and magnesium for 30 minutes at room temperature. Cells were then washed with PBS and subsequently permeabilized (Triton™-X, at 0.1%) and blocked with 5% bovine serum albumin in PBS for 1 hour at room temperature. Cells were then incubated for >16 hours at 4 degrees with primary antibodies. Primary antibodies were aspirated, and cells were washed with PBS+0.1% Tween-20 at room temperature. Cells were then incubated for 1 hour at room temperature with secondary antibodies (1:500) and/or Phalloidin-iFluor™ 488 1:2000. Cells were stained with 4′,6-diamidino-2-phenylindole at 1:20000 (BioLegend®, San Diego, California, 422801). Subsequently, transwell membranes, or hydrogels, were removed from the well and mounted on glass slides with Fluoromount-G® (SouthernBiotech™, Birmingham, Alabama, 0100-01). Slides were then visualized using an Olympus BX63 microscope (Olympus, Tokyo, Japan).
Immunofluorescence and cell number quantification for HBEC experiments: For total fluorescence quantification (i.e., ERBB2), all images were processed in the same manner with the same microscopy settings. To determine mean fluorescence the channel of interest was separated in ImageJ, and the mean gray value was measured for the field of view and normalized by the total number of cells. Cell counting was achieved by taking 40×images and manually counting all nuclei in a field of view (approximately 200-300). The number of cells also expressing the marker of interested were then counted and normalized by the total number of cells per field. For each experiment a biological n≥3 was used with at least 5 fields of view per well and at least 2 wells being counted in total per donor.

IPF HBECs [5] = assay: Gene expression of ERBB receptors, YAP target genes and MUC5B in IPF HBECs; assay type: cell-based, human; conditions: IPF HBECs after inhibition
Experimental: Quantitative RT-PCR Analysis: Total RNA was extracted using RNeasy® Mini kit (Qiagen, Hilden, Germany) and quantified by NanoDrop™ (ThermoFisher Scientific™, Waltham, Massachusetts).Reverse transcription was completed using the High Capacity cDNA Reverse Transcription Kit (Applied Biosystems™, Thermo Fisher Scientific™, Waltham, Massachusetts). Gene expression was analyzed by using TaqMan® Advanced Master Mix (Thermo Fisher Scientific™, Waltham, Massachusetts and TaqMan® assays. They were subsequently run in triplicate on the ViiA™ 7 Real-Time machine (Thermo Fisher Scientific™, Waltham, Massachusetts). Primer IDs were: β-ACTIN, Hs01060665_g1; MUC5B, Hs00861595_m1; MUC5AC, Hs01365616_m1; EGFR, Hs0176090_m1; ERBB2, Hs01001580_m1; ZEB1, Hs00232783_m1; SNAI1, Hs00195591_m1; VIM, Hs00185584_m1; CTGF, Hs00170014_m1; AREG, Hs00950669_m1; FN1, Hs01549976_m1; PDGFRA, Hs00998018_m1; PDGFA, Hs00234994_m1; PDGFRB, Hs01019589_m1; PDGFB, Hs00966522_m1; TGFBRI, Hs00610320_m1; TGFBI, Hs00998133_m1; COL1A1, Hs00164004_m1; ACTA2, Hs00426835; MMP3, Hs00968305_m1; MMP9, Hs00957562_m1; TIMP1, Hs01092512_g1; and TIMP2, Hs00234278_m1.

COPD HBECs = assay: Induction of jamming in COPD HBECs; assay type: cell-based, human
From the text: as §1
as §2, with “afterwards. […]” for “afterwards.”

Compound	fibroblast activation [1]	rescue of increase in cell number and pro-fibrotic gene expression [1]	effect of inhibitor pre-treatment on IL-6 family cytokine induced unjamming [2]	induction of the UJT (jamming) in IPF epithelia (IPF HBECs [3])	YAP nuclear exclusion (IPF HBECs [4])	transcription of ERBB receptors, YAP target genes and MUC5B (IPF HBECs [5])	induction of jamming in COPD epithelia (COPD HBECs)
NC(=O)c1ccc(-c2nc(-c3ccc4c(c3)OCO4)c(-c3ccccn3)[nH]2)cc1 [SB431542]	reduced fibroblast activation	none of these treatments alone were able to fully rescue the increase in cell number or the associated pro-fibrotic gene expression					
O=[N+]([O-])c1ccc2c(c1)S(=O)(=O)C=C2 [Stattic]			JAK/STAT signaling was dispensable for IL-6 family cytokine induced unjamming in proximal cultures	did not induce the UJT			
Verteporfin			SRC and YAP were essential for the acquisition of this fluid-like phenotype	halted migration and induced a cobblestone appearance in the epithelia	results in YAP nuclear exclusion	reduced the transcription of ERBB receptors, YAP target genes, and MUC5B nearly back to control levels; also recorded: decreases 738 ERBB-YAP target gene expression	not responsive to ERBB-YAP inhibition
